Test results published in patent US11389415B2, “Methods of regulating cannabinoid receptor activity-related disorders and diseases” (The United States of America as represented by the …, priority 2012, dated 2022).
Like-named read-outs stand apart in the source and are kept apart here.

Tests used:
PANC-1 = experiment: tumor cell growth, PANC-1; settings: read-out: IC50 (uM), PANC-1 (Pancreatic C); Table 6
Du-145 = experiment: tumor cell growth, Du-145; settings: read-out: IC50 (uM), Du-145 (Prostate C); Table 6
HEP3B [1] = experiment: [3H]-Thymidine incorporation in 96-well plates (Thy), HEP3B; settings: read-out: IC50 (uM), HEP3B (Liver Cancer)
A172 = experiment: tumor cell growth, A172; settings: read-out: IC50 (uM), A172 (CNS); Table 6
HCT116 [2] = experiment: Thymidine (Thy) 96 well, HCT116; settings: read-out: IC50 (uM), HCT116 (Colon Cancer)
HT29 [3] = experiment: Thymidine (Thy) 96 well, HT29; settings: read-out: IC50 (uM), HT29 (Colon Cancer)
H460 = experiment: tumor cell growth (CTG), H460 / NCIH460
PC3 [4] = experiment: [3H]-Thymidine incorporation in 96-well plates (Thy), PC3; settings: read-out: IC50 (uM), PC3 (Prostrate Cancer)
HT29 [5] = experiment: tumor cell growth (CTG), HT29
NCIH460 = experiment: Thymidine (Thy) 96 well, NCIH460; settings: read-out: IC50 (uM), NCIH460 (NSCLC)
GL261 = experiment: tumor cell growth, GL261; settings: read-out: IC50 (uM), GL261 (CNS); Table 6
MCF7 = experiment: tumor cell growth, MCF7; settings: read-out: IC50 (uM), MCF7 (Breast C); Table 6
U251 = experiment: tumor cell growth, U251; settings: read-out: IC50 (uM), U251 (CNS); Table 6
A549 = experiment: tumor cell growth, A549; settings: read-out: IC50 (uM), A549 (NSCLC); Table 6
HCT116 [6] = experiment: tumor cell growth (CTG), HCT116
LN-229 = experiment: tumor cell growth (CTG), LN-229 / LN229
MDAMB231 = experiment: tumor cell growth, MDAMB231; settings: read-out: IC50 (uM), MDAMB231 (Breast C); Table 6
LN229 = experiment: [3H]-Thymidine incorporation in 96-well plates (Thy), LN229; settings: read-out: IC50 (uM), LN229 (CNS Cancer)
HEPG2 = experiment: tumor cell growth, HEPG2; settings: read-out: IC50 (uM), HEPG2 (Liver C); Table 6
HEP3B [7] = experiment: tumor cell growth (CTG), HEP3B
LN-18 = experiment: tumor cell growth, LN-18; settings: read-out: IC50 (uM), LN-18 (CNS); Table 6
PC3 [8] = experiment: tumor cell growth (CTG), PC3
U87 = experiment: tumor cell growth, U87; settings: read-out: IC50 (uM), U87 (CNS); Table 6
U118 = experiment: tumor cell growth, U118; settings: read-out: IC50 (uM), U118 (CNS); Table 6

## COc1ccc(C[C@@H](C)NC[C@H](O)c2cc(O)cc(O)c2)c2ccccc12 [(R,R′)-MNF, (R,R′)-4′-methoxy-1-naphthylfenoterol]
PANC-1
  IC50: 33.4 µM
Du-145
  IC50: 34.8 µM
HEP3B [1]; 96 well Thy 2 days treatment
  IC50: 10 µM
HEP3B [1]; 96 well Tye 1 day treatment
  IC50: 10.7 µM
A172
  IC50: 30.5 µM
HCT116 [2]; 96 well Thy 2 days treatment
  IC50: 11 µM
HCT116 [2]; 96 well Tye 1 day treatment
  IC50: 23.8 µM
HT29 [3]; 96 well Thy 2 days treatment
  IC50: 19.6 µM
HT29 [3]; 96 well Tye 1 day treatment
  IC50: 13 µM
H460; read-out: IC50 (uM), H460 (NSCLC), Table 6
  IC50: 11.6 µM
H460; read-out: IC50 (uM), NCIH460 (NSCLC), 96 well CTG 1 day treatment
  IC50: 38.9 µM
H460; read-out: IC50 (uM), NCIH460 (NSCLC), 96 well CTG 2 days treatment
  IC50: 15.4 µM
H460; read-out: IC50 (uM), NCIH460 (NSCLC), 384well CTG 3 days treatment −1
  IC50: 11.6 µM
H460; read-out: IC50 (uM), NCIH460 (NSCLC), 384well CTG 3 days treatment −2
  IC50: 17.7 µM
PC3 [4]; 96 well Thy 2 days treatment
  IC50: 10.8 µM
PC3 [4]; 96 well Tye 1 day treatment
  IC50: 11 µM
HT29 [5]; read-out: IC50 (uM), HT29 (Colon C), Table 6
  IC50: 10.7 µM
HT29 [5]; read-out: IC50 (uM), HT29 (Colon Cancer), 96 well CTG 1 day treatment
  IC50: 30.4 µM
HT29 [5]; read-out: IC50 (uM), HT29 (Colon Cancer), 96 well CTG 2 days treatment
  IC50: 11.7 µM
HT29 [5]; read-out: IC50 (uM), HT29 (Colon Cancer), 384well CTG 3 days treatment −1
  IC50: 10.7 µM
NCIH460; 96 well Thy 2 days treatment
  IC50: 21 µM
NCIH460; 96 well Tye 1 day treatment
  IC50: 25.1 µM
GL261
  IC50: 21.3 µM
MCF7
  IC50: 37.2 µM
U251
  IC50: 26.7 µM
A549
  IC50: 23.1 µM
HCT116 [6]; read-out: IC50 (uM), HCT116 (Colon C), Table 6
  IC50: 12.9 µM
HCT116 [6]; read-out: IC50 (uM), HCT116 (Colon Cancer), 96 well CTG 1 day treatment
  IC50: 19 µM
HCT116 [6]; read-out: IC50 (uM), HCT116 (Colon Cancer), 96 well CTG 2 days treatment
  IC50: 10.5 µM
HCT116 [6]; read-out: IC50 (uM), HCT116 (Colon Cancer), 384well CTG 3 days treatment −1
  IC50: 12.9 µM
HCT116 [6]; read-out: IC50 (uM), HCT116 (Colon Cancer), 384well CTG 3 days treatment −2
  IC50: 12.2 µM
LN-229; read-out: IC50 (uM), LN229 (CNS Cancer), 96 well CTG 1 day treatment
  IC50: 29.3 µM
LN-229; read-out: IC50 (uM), LN229 (CNS Cancer), 96 well CTG 2 days treatment
  IC50: 15.7 µM
LN-229; read-out: IC50 (uM), LN229 (CNS Cancer), 384well CTG 3 days treatment −1
  IC50: 26.8 µM
LN-229; read-out: IC50 (uM), LN-229 (CNS), Table 6
  IC50: 26.8 µM
MDAMB231
  IC50: 33.2 µM
LN229; 96 well Thy 2 days treatment
  IC50: 10.4 µM
LN229; 96 well Tye 1 day treatment
  IC50: 9.64 µM
HEPG2
  IC50: 28.8 µM
HEP3B [7]; read-out: IC50 (uM), HEP3B (Liver C), Table 6
  IC50: 14.7 µM
HEP3B [7]; read-out: IC50 (uM), HEP3B (Liver Cancer), 96 well CTG 1 day treatment
  IC50: 28.3 µM
HEP3B [7]; read-out: IC50 (uM), HEP3B (Liver Cancer), 96 well CTG 2 days treatment
  IC50: 13.5 µM
HEP3B [7]; read-out: IC50 (uM), HEP3B (Liver Cancer), 384well CTG 3 days treatment −1
  IC50: 14.7 µM
HEP3B [7]; read-out: IC50 (uM), HEP3B (Liver Cancer), 384well CTG 3 days treatment −2
  IC50: 12.1 µM
LN-18
  IC50: 29.7 µM
PC3 [8]; read-out: IC50 (uM), PC3 (Prostate C), Table 6
  IC50: 28.1 µM
PC3 [8]; read-out: IC50 (uM), PC3 (Prostrate Cancer), 96 well CTG 1 day treatment
  IC50: 34.5 µM
PC3 [8]; read-out: IC50 (uM), PC3 (Prostrate Cancer), 96 well CTG 2 days treatment
  IC50: 20.4 µM
PC3 [8]; read-out: IC50 (uM), PC3 (Prostrate Cancer), 384well CTG 3 days treatment −1
  IC50: 28.1 µM
U87
  IC50: 25.7 µM
U118
  IC50: 37 µM
